# Measured values from patent publication US20230331803A1, “CO-AGONISTS OF THE GLP-1 AND AMYLIN RECEPTORS” (priority 2020, published 2023).
# Like-named read-outs stand apart in the source and are kept apart here. Starred links: 1 amine or outer side, 2 acyl side, 3 side chain; linkers in the order of their positions; H or OH if unused. Positions of bridges follow the written chain, without caps; N, C: chain ends. Non-standard residues stand in square brackets, D forms with d. Groups on a side chain read outwards from the residue. *: point of attachment. C20 diacid = O=C(O)CCCCCCCCCCCCCCCCCCC(=O)*; C18 diacid = O=C(O)CCCCCCCCCCCCCCCCC(=O)*; C16 diacid = O=C(O)CCCCCCCCCCCCCCC(=O)*; γGlu = O=C(O)[C@H](CCC(=O)[*:2])N[*:1]; AEEA = NCCOCCOCC(=O)O; Aib = CC(C)(N)C(=O)O
# Assays:
# [1] = target: T1, human GLP-1 receptor (Homo sapiens, UniProt P43220); assay: Human GLP-1 receptor in vitro potency assay (CRE-luciferase reporter, BHK cells); format: cell-based
# T1 construct: expressed in transfected cells; host or cells: BHK (Baby Hamster Kidney) cells, clone BHK 467-12A KZ-10, stably transfected, with CRE-luciferase reporter
# T1 sequence (P43220 24-463): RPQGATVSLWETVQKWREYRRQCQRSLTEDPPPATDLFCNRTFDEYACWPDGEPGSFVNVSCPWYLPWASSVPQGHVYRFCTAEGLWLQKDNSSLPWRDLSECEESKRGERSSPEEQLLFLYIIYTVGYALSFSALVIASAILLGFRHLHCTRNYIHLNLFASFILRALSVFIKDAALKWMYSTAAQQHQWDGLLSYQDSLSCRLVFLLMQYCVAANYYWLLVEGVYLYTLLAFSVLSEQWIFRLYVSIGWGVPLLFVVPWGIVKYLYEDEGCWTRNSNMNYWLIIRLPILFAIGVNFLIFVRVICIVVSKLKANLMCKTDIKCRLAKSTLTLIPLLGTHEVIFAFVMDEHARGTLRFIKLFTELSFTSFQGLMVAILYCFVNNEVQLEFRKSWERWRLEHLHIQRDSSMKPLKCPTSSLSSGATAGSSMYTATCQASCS
# Method: It is thus possible to measure GLP-1 receptor activity using a CRE-luciferase reporter gene introduced into Baby Hamster Kidney (BHK) cells co-expressing the GLP-1 receptor.
# Cells were aliquoted and stored at -180° C. until use.
# Plates were sealed and incubated at room temperature with gentle shaking for 30 minutes while protected from light. Luminescence was detected on a luminescence plate reader e.g. a Synergy 2 (BioTek).
# [2] = target: T2, human amylin receptor (hAmyR3) (Homo sapiens, UniProt O60896+P30988); assay: Human amylin receptor in vitro potency assay (CRE-luciferase reporter, BHK cells); format: cell-based;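 note: BHK cells expressing human calcitonin receptor plus RAMP3 (amylin-3 receptor) with a CRE-luciferase reporter, agonist activity read as luminescence from cAMP-driven transcription, 7-point serial dilutions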
# T2 construct: host or cells: BHK cells (Hollex-1 line: human calcitonin receptor (a) + CRE-Luc), further transfected with human RAMP3
# T2 sequence (P30988 25-474): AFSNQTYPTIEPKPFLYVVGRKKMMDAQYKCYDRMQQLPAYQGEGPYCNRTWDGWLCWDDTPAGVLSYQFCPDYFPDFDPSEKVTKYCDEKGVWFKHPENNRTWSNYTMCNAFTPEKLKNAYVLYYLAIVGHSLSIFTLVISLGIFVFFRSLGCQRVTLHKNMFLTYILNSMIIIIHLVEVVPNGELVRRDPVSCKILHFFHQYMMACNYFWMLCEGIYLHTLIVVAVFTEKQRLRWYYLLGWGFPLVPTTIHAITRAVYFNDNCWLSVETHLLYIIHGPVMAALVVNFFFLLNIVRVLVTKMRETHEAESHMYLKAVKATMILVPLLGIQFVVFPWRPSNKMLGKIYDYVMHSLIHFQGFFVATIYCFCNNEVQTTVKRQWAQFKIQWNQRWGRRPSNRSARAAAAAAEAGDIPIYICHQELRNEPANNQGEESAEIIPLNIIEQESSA
# T2 sequence (O60896 24-148): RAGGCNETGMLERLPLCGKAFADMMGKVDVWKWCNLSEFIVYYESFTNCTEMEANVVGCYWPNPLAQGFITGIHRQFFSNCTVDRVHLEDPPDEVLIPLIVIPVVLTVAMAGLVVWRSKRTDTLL
# [3] = Table 4a, BHK hAmyR3/CRE-Luc cells, 3 hours, read-out: Human AmyR3 potency [EC50 (pM)]
"EC50 [2, 3] [pM]",Molecule,EC50 [1] [nM],EC50 [2] [pM],"Ability to agonise the amylin receptor, in words ([2]; Tables 4a-4c)"
–,CC[C@H](C)[C@H](NC(=O)[C@H](Cc1ccccc1)NC(=O)[C@H](CCC(=O)O)NC(=O)[C@H](CCCCNC(=O)COCCOCCNC(=O)COCCOCCNC(=O)CC[C@H](NC(=O)CCCCCCCCCCCCCCCCC(=O)O)C(=O)O)NC(=O)[C@H](C)NC(=O)[C@H](C)NC(=O)[C@H](CCC(N)=O)NC(=O)CNC(=O)[C@H](CCC(=O)O)NC(=O)[C@H](CC(C)C)NC(=O)[C@H](Cc1ccc(O)cc1)NC(=O)[C@H](CO)NC(=O)[C@H](CO)NC(=O)[C@@H](NC(=O)[C@H](CC(=O)O)NC(=O)[C@H](CO)NC(=O)[C@@H](NC(=O)[C@H](Cc1ccccc1)NC(=O)[C@@H](NC(=O)CNC(=O)[C@H](CCC(=O)O)NC(=O)C(C)(C)NC(=O)[C@@H](N)Cc1c[nH]cn1)[C@@H](C)O)[C@@H](C)O)C(C)C)C(=O)N[C@@H](C)C(=O)N[C@@H](Cc1c[nH]c2ccccc12)C(=O)N[C@@H](CC(C)C)C(=O)N[C@H](C(=O)N[C@@H](CCCNC(=N)N)C(=O)NCC(=O)N[C@@H](CCCNC(=N)N)C(=O)NCC(=O)N[C@@H](CCCCNC(=O)COCCOCCNC(=O)COCCOCCNC(=O)CC[C@H](NC(=O)CCCCCCCCCCCCCCCCC(=O)O)C(=O)O)C(=O)N[C@@H](CCC(N)=O)C(=O)N[C@@H](CCC(=O)O)C(=O)N1CCC[C@H]1C(=O)NCC(=O)N[C@@H](CCC(N)=O)C(=O)N[C@@H](CCC(=O)O)C(=O)N1CCC[C@H]1C(=O)N[C@@H](CCC(=O)O)C(=O)N[C@@H](C)C(=O)N[C@@H](CO)C(=O)N[C@@H](CCC(=O)O)C(=O)N[C@@H](CC(C)C)C(=O)N[C@@H](CO)C(=O)N[C@H](C(=O)N[C@@H](C)C(=O)N[C@@H](C)C(=O)N[C@@H](CC(C)C)C(=O)NCC(=O)N[C@@H](CCCNC(=N)N)C(=O)N[C@@H](CC(C)C)C(=O)N[C@@H](CO)C(=O)N[C@@H](C)C(=O)N[C@@H](CCC(=O)O)C(=O)N[C@@H](CC(C)C)C(=O)N[C@@H](Cc1c[nH]cn1)C(=O)N[C@@H](CCC(=O)O)C(=O)N[C@@H](CC(C)C)C(=O)N[C@@H](C)C(=O)N[C@H](C(=O)N[C@@H](CC(C)C)C(=O)N1CCC[C@H]1C(=O)N[C@@H](CCCNC(=N)N)C(=O)N[C@H](C(=O)N[C@@H](CCC(=O)O)C(=O)N[C@H](C(=O)NCC(=O)N[C@@H](CO)C(=O)NCC(=O)N[C@@H](CO)C(=O)N1CCC[C@H]1C(N)=O)[C@@H](C)O)[C@@H](C)O)[C@@H](C)O)[C@@H](C)O)C(C)C [Compound 0056],0.0414,120,–
–,CC[C@H](C)[C@H](NC(=O)[C@H](Cc1ccccc1)NC(=O)[C@H](CCC(=O)O)NC(=O)[C@H](CCCCNC(=O)COCCOCCNC(=O)COCCOCCNC(=O)CC[C@H](NC(=O)CCCCCCCCCCCCCCCCC(=O)O)C(=O)O)NC(=O)[C@H](C)NC(=O)[C@H](C)NC(=O)[C@H](CCC(N)=O)NC(=O)CNC(=O)[C@H](CCC(=O)O)NC(=O)[C@H](CC(C)C)NC(=O)[C@H](Cc1ccc(O)cc1)NC(=O)[C@H](CO)NC(=O)[C@H](CO)NC(=O)[C@@H](NC(=O)[C@H](CC(=O)O)NC(=O)[C@H](CO)NC(=O)[C@@H](NC(=O)[C@H](Cc1ccccc1)NC(=O)[C@@H](NC(=O)CNC(=O)[C@H](CCC(=O)O)NC(=O)C(C)(C)NC(=O)[C@@H](N)Cc1c[nH]cn1)[C@@H](C)O)[C@@H](C)O)C(C)C)C(=O)N[C@@H](C)C(=O)N[C@@H](Cc1c[nH]c2ccccc12)C(=O)N[C@@H](CC(C)C)C(=O)N[C@H](C(=O)N[C@@H](CCCNC(=N)N)C(=O)NCC(=O)N[C@@H](CCCNC(=N)N)C(=O)NCC(=O)NCC(=O)N[C@@H](CCC(N)=O)C(=O)N[C@@H](CCC(=O)O)C(=O)N[C@@H](CCCCNC(=O)COCCOCCNC(=O)COCCOCCNC(=O)CC[C@H](NC(=O)CCCCCCCCCCCCCCCCC(=O)O)C(=O)O)C(=O)NCC(=O)N[C@@H](CCC(N)=O)C(=O)N[C@@H](CCC(=O)O)C(=O)N1CCC[C@H]1C(=O)N[C@@H](CCC(=O)O)C(=O)N[C@@H](C)C(=O)N[C@@H](CO)C(=O)N[C@@H](CCC(=O)O)C(=O)N[C@@H](CC(C)C)C(=O)N[C@@H](CO)C(=O)N[C@H](C(=O)N[C@@H](C)C(=O)N[C@@H](C)C(=O)N[C@@H](CC(C)C)C(=O)NCC(=O)N[C@@H](CCCNC(=N)N)C(=O)N[C@@H](CC(C)C)C(=O)N[C@@H](CO)C(=O)N[C@@H](C)C(=O)N[C@@H](CCC(=O)O)C(=O)N[C@@H](CC(C)C)C(=O)N[C@@H](Cc1c[nH]cn1)C(=O)N[C@@H](CCC(=O)O)C(=O)N[C@@H](CC(C)C)C(=O)N[C@@H](C)C(=O)N[C@H](C(=O)N[C@@H](CC(C)C)C(=O)N1CCC[C@H]1C(=O)N[C@@H](CCCNC(=N)N)C(=O)N[C@H](C(=O)N[C@@H](CCC(=O)O)C(=O)N[C@H](C(=O)NCC(=O)N[C@@H](CO)C(=O)NCC(=O)N[C@@H](CO)C(=O)N1CCC[C@H]1C(N)=O)[C@@H](C)O)[C@@H](C)O)[C@@H](C)O)[C@@H](C)O)C(C)C [Compound 0057],0.059,165,–
–,CC[C@H](C)[C@H](NC(=O)[C@H](Cc1ccccc1)NC(=O)[C@H](CCC(=O)O)NC(=O)[C@H](CCCCNC(=O)COCCOCCNC(=O)COCCOCCNC(=O)CC[C@H](NC(=O)CCCCCCCCCCCCCCCCC(=O)O)C(=O)O)NC(=O)[C@H](C)NC(=O)[C@H](C)NC(=O)[C@H](CCC(N)=O)NC(=O)CNC(=O)[C@H](CCC(=O)O)NC(=O)[C@H](CC(C)C)NC(=O)[C@H](Cc1ccc(O)cc1)NC(=O)[C@H](CO)NC(=O)[C@H](CO)NC(=O)[C@@H](NC(=O)[C@H](CC(=O)O)NC(=O)[C@H](CO)NC(=O)[C@@H](NC(=O)[C@H](Cc1ccccc1)NC(=O)[C@@H](NC(=O)CNC(=O)[C@H](CCC(=O)O)NC(=O)C(C)(C)NC(=O)[C@@H](N)Cc1c[nH]cn1)[C@@H](C)O)[C@@H](C)O)C(C)C)C(=O)N[C@@H](C)C(=O)N[C@@H](Cc1c[nH]c2ccccc12)C(=O)N[C@@H](CC(C)C)C(=O)N[C@H](C(=O)N[C@@H](CCCNC(=N)N)C(=O)NCC(=O)N[C@@H](CCCNC(=N)N)C(=O)NCC(=O)NCC(=O)N[C@@H](CCC(N)=O)C(=O)N[C@@H](CCC(=O)O)C(=O)N1CCC[C@H]1C(=O)NCC(=O)N[C@@H](CCC(N)=O)C(=O)N[C@@H](CCC(=O)O)C(=O)N1CCC[C@H]1C(=O)N[C@@H](CCCCNC(=O)COCCOCCNC(=O)COCCOCCNC(=O)CC[C@H](NC(=O)CCCCCCCCCCCCCCCCC(=O)O)C(=O)O)C(=O)N[C@@H](CCC(=O)O)C(=O)N[C@@H](C)C(=O)N[C@@H](CO)C(=O)N[C@@H](CCC(=O)O)C(=O)N[C@@H](CC(C)C)C(=O)N[C@@H](CO)C(=O)N[C@H](C(=O)N[C@@H](C)C(=O)N[C@@H](C)C(=O)N[C@@H](CC(C)C)C(=O)NCC(=O)N[C@@H](CCCNC(=N)N)C(=O)N[C@@H](CC(C)C)C(=O)N[C@@H](CO)C(=O)N[C@@H](C)C(=O)N[C@@H](CCC(=O)O)C(=O)N[C@@H](CC(C)C)C(=O)N[C@@H](Cc1c[nH]cn1)C(=O)N[C@@H](CCC(=O)O)C(=O)N[C@@H](CC(C)C)C(=O)N[C@@H](C)C(=O)N[C@H](C(=O)N[C@@H](CC(C)C)C(=O)N1CCC[C@H]1C(=O)N[C@@H](CCCNC(=N)N)C(=O)N[C@H](C(=O)N[C@@H](CCC(=O)O)C(=O)N[C@H](C(=O)NCC(=O)N[C@@H](CO)C(=O)NCC(=O)N[C@@H](CO)C(=O)N1CCC[C@H]1C(N)=O)[C@@H](C)O)[C@@H](C)O)[C@@H](C)O)[C@@H](C)O)C(C)C [Compound 0071],0.0694,159,–
28.4,CC[C@H](C)[C@H](NC(=O)[C@H](Cc1ccccc1)NC(=O)[C@H](CCCCNC(=O)COCCOCCNC(=O)COCCOCCNC(=O)CC[C@H](NC(=O)CCCCCCCCCCCCCCCCC(=O)O)C(=O)O)NC(=O)[C@H](CCCNC(=N)N)NC(=O)[C@H](C)NC(=O)[C@H](C)NC(=O)[C@H](CCC(N)=O)NC(=O)[C@H](CCC(=O)O)NC(=O)[C@H](CCC(=O)O)NC(=O)[C@H](CC(C)C)NC(=O)[C@H](Cc1ccc(O)cc1)NC(=O)[C@H](CO)NC(=O)[C@H](CO)NC(=O)[C@@H](NC(=O)[C@H](CC(=O)O)NC(=O)[C@H](CO)NC(=O)[C@@H](NC(=O)[C@H](Cc1ccccc1)NC(=O)[C@@H](NC(=O)CNC(=O)[C@H](CCC(=O)O)NC(=O)C(C)(C)NC(=O)[C@@H](N)Cc1c[nH]cn1)[C@@H](C)O)[C@@H](C)O)C(C)C)C(=O)N[C@@H](CCC(=O)O)C(=O)N[C@@H](Cc1c[nH]c2ccccc12)C(=O)N[C@@H](CC(C)C)C(=O)N[C@H](C(=O)N[C@@H](CCCNC(=N)N)C(=O)NCC(=O)N[C@@H](CCCCNC(=O)COCCOCCNC(=O)COCCOCCNC(=O)CC[C@H](NC(=O)CCCCCCCCCCCCCCCCC(=O)O)C(=O)O)C(=O)NCC(=O)N[C@@H](CCC(=O)O)C(=O)NCC(=O)N[C@@H](CCC(N)=O)C(=O)N[C@@H](CCC(=O)O)C(=O)N1CCC[C@H]1C(=O)NCC(=O)NCC(=O)N[C@@H](C)C(=O)N[C@@H](CO)C(=O)N[C@@H](CCC(=O)O)C(=O)N[C@@H](CC(C)C)C(=O)N[C@@H](CO)C(=O)N[C@H](C(=O)N[C@@H](C)C(=O)N[C@@H](C)C(=O)N[C@@H](CC(C)C)C(=O)NCC(=O)N[C@@H](CCCNC(=N)N)C(=O)N[C@@H](CC(C)C)C(=O)N[C@@H](CO)C(=O)N[C@@H](C)C(=O)N[C@@H](CCC(=O)O)C(=O)N[C@@H](CC(C)C)C(=O)N[C@@H](Cc1c[nH]cn1)C(=O)N[C@@H](CCC(=O)O)C(=O)N[C@@H](CC(C)C)C(=O)N[C@@H](C)C(=O)N[C@H](C(=O)N[C@@H](CC(C)C)C(=O)N1CCC[C@H]1C(=O)N[C@@H](CCCNC(=N)N)C(=O)N[C@H](C(=O)N[C@@H](CCC(=O)O)C(=O)N[C@H](C(=O)NCC(=O)N[C@@H](CO)C(=O)NCC(=O)N[C@@H](CO)C(=O)N1CCC[C@H]1C(N)=O)[C@@H](C)O)[C@@H](C)O)[C@@H](C)O)[C@@H](C)O)C(C)C [Compound 0106],–,–,–
8.5,H-H[Aib]EGTFTSDVSSYLEEQAARK([AEEA-AEEA-γGlu-γGlu-γGlu-C20 diacid])FIEWLVRGRQEAASELSTAALGRLSAELHQLATLPRTETGSGSP-NH2 [Compound 0636],–,–,–
–,"H-H[Aib]EGTFTSDVSSYLEGQAAK([AEEA-AEEA-γGlu-C18 diacid])EFIAWLVRGRGGQEPGQEPK([γGlu-γGlu-C20 diacid])CNTATCATQRLADFLRHSSPNFGAIPSSTNVGSRTY-NH2 (disulfide 41-46) [Comparator compound 0668, reference compound]",–,–,do not activate the amylin receptor
60.9,H[Aib]EGTFTSDVSSYLEEQAARK([AEEA-AEEA-γGlu-C16 diacid])FIAWLVRGRGGK([AEEA-AEEA-γGlu-C16 diacid])EASELSTAALGRLSAELHELATLPRTETGSGSP-NH2 [Compound 0074],–,–,–
